Results as given in PubChem BioAssay AID180 (DTP/NCI, 2004).
“And” between values parts separate entries of the source, which are not always exact repeats. Equal entries are not always repeated.

Test system: BDF1 mice, Adenocarcinoma 755 s.c., tumor weight T/C
Experiment: NCI In Vivo Anticancer Drug Screen. Data for tumor model Adenocarcinoma 755 (subcutaneous) in B6D2F1 (BDF1) mice
Settings: endpoint: mean tumor weight, higher = larger tumour
In short: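 Values express treated (T) relative to vehicle-dosed control (C) animals, based on survival or tumour size measured after compound treatment of mice bearing a transplanted tumour.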

[1] = dose: 30.0 mg/kg/injection, schedule: Q01DX011 (ip), vehicle: carboxymethylcellulose (CMC)
[2] = dose: 60.0 mg/kg/injection, schedule: Q01DX011 (ip), vehicle: carboxymethylcellulose (CMC)
[3] = dose: 120.0 mg/kg/injection, schedule: Q01DX011 (ip), vehicle: carboxymethylcellulose (CMC)
[4] = dose: 25.0 mg/kg/injection, schedule: Q01DX011 (ip), vehicle: saline
[5] = dose: 50.0 mg/kg/injection, schedule: Q01DX011 (ip), vehicle: saline
[6] = dose: 31.0 mg/kg/injection, schedule: Q01DX011 (ip), vehicle: methylcellulose (MC)

[N-]=[N+]=C1C(=O)NC(=O)N2C3CC(O)C(COC12)O3 (configuration not stated)
T/C (dose: 30.0 mg/kg/injection, schedule: Q01DX011 (ip), vehicle: saline): 87 % of control | T/C (dose: 60.0 mg/kg/injection, schedule: Q01DX011 (ip), vehicle: saline): 80 % of control | T/C (dose: 120.0 mg/kg/injection, schedule: Q01DX011 (ip), vehicle: saline): 97 % of control | T/C (dose: 240.0 mg/kg/injection, schedule: Q01DX011 (ip), vehicle: saline): 68 % of control | T/C (dose: 400.0 mg/kg/injection, schedule: Q01DX011 (ip), vehicle: carboxymethylcellulose (CMC)): 40 % of control

CCC(C)Cn1cnc2c(=O)[nH]c(N)nc21 (configuration not stated)
T/C (dose: 37.5 mg/kg/injection, schedule: Q01DX011 (ip), vehicle: methylcellulose (MC)): 75 % of control | T/C (dose: 75.0 mg/kg/injection, schedule: Q01DX011 (ip), vehicle: methylcellulose (MC)): 49 % of control | T/C (dose: 150.0 mg/kg/injection, schedule: Q01DX011 (ip), vehicle: methylcellulose (MC)): 67 % of control

Cn1c(=O)c2c(nc(N/N=C/c3cccc(Br)c3)n2C)n(C)c1=O
T/C [1]: 93 % of control | T/C [2]: 111 % of control | T/C [3]: 88 % of control

Cn1c(=O)c2[nH]cnc2n(C)c1=O
T/C (dose: 14.5 mg/kg/injection, schedule: Q01DX011 (ip), vehicle: carboxymethylcellulose (CMC)): 85 % of control | T/C (dose: 18.25 mg/kg/injection, schedule: Q01DX011 (ip), vehicle: carboxymethylcellulose (CMC)): 68 % of control | T/C (dose: 19.87 mg/kg/injection, schedule: Q01DX011 (ip), vehicle: carboxymethylcellulose (CMC)): 80 % of control | T/C (dose: 29.0 mg/kg/injection, schedule: Q01DX011 (ip), vehicle: carboxymethylcellulose (CMC)): 44 % of control | T/C (dose: 36.5 mg/kg/injection, schedule: Q01DX011 (ip), vehicle: carboxymethylcellulose (CMC)): 92 % of control | T/C (dose: 39.74 mg/kg/injection, schedule: Q01DX011 (ip), vehicle: carboxymethylcellulose (CMC)): 52 % of control | T/C (dose: 63.0 mg/kg/injection, schedule: Q01DX011 (ip), vehicle: carboxymethylcellulose (CMC)): 86 % of control | T/C (dose: 77.33 mg/kg/injection, schedule: Q01DX011 (ip), vehicle: carboxymethylcellulose (CMC)): 53 % of control and 72 % of control | T/C (dose: 79.48 mg/kg/injection, schedule: Q01DX011 (ip), vehicle: carboxymethylcellulose (CMC)): 53 % of control | T/C (dose: 116.0 mg/kg/injection, schedule: Q01DX011 (ip), vehicle: carboxymethylcellulose (CMC)): 75 % of control | T/C (dose: 158.97 mg/kg/injection, schedule: Q01DX011 (ip), vehicle: carboxymethylcellulose (CMC)): 60 % of control

COc1ccc(-c2c(C)c(C(=O)O)nc(-c3ccc(C(=O)O)c(C(=O)O)n3)c2N)c(O)c1OC
T/C (dose: 100.0 mg/kg/injection, schedule: Q01DX011 (ip), vehicle: water): 58 % of control | T/C (dose: 200.0 mg/kg/injection, schedule: Q01DX011 (ip), vehicle: water): 83 % of control

O=C(OCC1OC(n2cnc3c(=O)[nH]c(=O)[nH]c32)C(OC(=O)c2ccccc2)C1OC(=O)c1ccccc1)c1ccccc1 (configuration not stated)
T/C [1]: 105 % of control | T/C [2]: 78 % of control | T/C (dose: 240.0 mg/kg/injection, schedule: Q01DX011 (ip), vehicle: carboxymethylcellulose (CMC)): 59 % of control

CCCCNS(=O)(=O)c1ncnc2nc[nH]c12
T/C (dose: 2.0 mg/kg/injection, schedule: Q01DX011 (ip), vehicle: carboxymethylcellulose (CMC)): 115 % of control | T/C (dose: 6.0 mg/kg/injection, schedule: Q01DX011 (ip), vehicle: carboxymethylcellulose (CMC)): 44 % of control | T/C (dose: 12.0 mg/kg/injection, schedule: Q01DX011 (ip), vehicle: carboxymethylcellulose (CMC)): 13 % of control

S=c1nc[nH]c2nc[nH]c12.[Cd]
T/C (dose: 0.4 mg/kg/injection, schedule: Q01DX011 (ip), vehicle: saline): 38 % of control

N#[N+]c1nc[nH]c1C(N)=O
T/C (dose: 1.25 mg/kg/injection, schedule: Q01DX011 (ip), vehicle: methylcellulose (MC)): 61 % of control

Nc1ncnc(F)c1N
T/C (dose: 15.5 mg/kg/injection, schedule: Q01DX011 (ip), vehicle: carboxymethylcellulose (CMC)): 106 % of control | T/C [1]: 96 % of control | T/C [2]: 123 % of control | T/C [3]: 89 % of control

OC(CBr)C(O)C(O)C(O)CBr (configuration not stated)
T/C [4]: 48 % of control | T/C [5]: 64 % of control and 71 % of control | T/C (dose: 100.0 mg/kg/injection, schedule: Q01DX011 (ip), vehicle: saline): 66 % of control and 72 % of control | T/C (dose: 200.0 mg/kg/injection, schedule: Q01DX011 (ip), vehicle: saline): 38 % of control and 50 % of control | T/C (dose: 400.0 mg/kg/injection, schedule: Q01DX011 (ip), vehicle: saline): 29 % of control

CCCCn1cnc2c(SCc3ccccc3)nc(N)nc21
T/C (dose: 7.81 mg/kg/injection, schedule: Q01DX011 (ip), vehicle: methylcellulose (MC)): 31 % of control | T/C (dose: 15.62 mg/kg/injection, schedule: Q01DX011 (ip), vehicle: methylcellulose (MC)): 2 % of control | T/C (dose: 31.25 mg/kg/injection, schedule: Q01DX011 (ip), vehicle: methylcellulose (MC)): 1 % of control

COc1cc2c(cc1I)-c1c(cc(OC)c(OC)c1OC)CC[C@@H]2NC(C)=O
T/C (dose: 27.5 mg/kg/injection, schedule: Q01DX011 (ip), vehicle: carboxymethylcellulose (CMC)): 98 % of control | T/C (dose: 27.5 mg/kg/injection, schedule: Q01DX011 (ip), vehicle: saline): 106 % of control | T/C (dose: 55.0 mg/kg/injection, schedule: Q01DX011 (ip), vehicle: carboxymethylcellulose (CMC)): 81 % of control | T/C (dose: 55.0 mg/kg/injection, schedule: Q01DX011 (ip), vehicle: saline): 86 % of control | T/C (dose: 110.0 mg/kg/injection, schedule: Q01DX011 (ip), vehicle: carboxymethylcellulose (CMC)): 40 % of control | T/C (dose: 110.0 mg/kg/injection, schedule: Q01DX011 (ip), vehicle: saline): 58 % of control | T/C (dose: 220.0 mg/kg/injection, schedule: Q01DX011 (ip), vehicle: saline): 16 % of control

CCCCN(C)N=Nc1ccc(CCCC(=O)OCC)cc1
T/C [4]: 64 % of control | T/C [5]: 57 % of control | T/C (dose: 75.0 mg/kg/injection, schedule: Q01DX011 (ip), vehicle: saline): 50 % of control

Cn1c2c(sc1=O)CCC2
T/C (dose: 88.0 mg/kg/injection, schedule: Q01DX011 (ip), vehicle: methylcellulose (MC)): 54 % of control | T/C (dose: 175.0 mg/kg/injection, schedule: Q01DX011 (ip), vehicle: methylcellulose (MC)): 80 % of control

CCCCOP(=O)(OCCCC)OCC1OC(n2cnc3c(=S)nc[nH]c32)C(O)C1O (configuration not stated)
T/C [6]: 100 % of control | T/C (dose: 62.0 mg/kg/injection, schedule: Q01DX011 (ip), vehicle: methylcellulose (MC)): 65 % of control | T/C (dose: 125.0 mg/kg/injection, schedule: Q01DX011 (ip), vehicle: methylcellulose (MC)): 46 % of control

O=C1NC(=O)C(c2ccccc2)(c2ccc(Cl)cc2Cl)N1 (configuration not stated)
T/C (dose: 28.0 mg/kg/injection, schedule: Q01DX011 (ip), vehicle: carboxymethylcellulose (CMC)): 54 % of control | T/C (dose: 28.0 mg/kg/injection, schedule: Q01DX011 (ip), vehicle: saline): 65 % of control | T/C (dose: 56.0 mg/kg/injection, schedule: Q01DX011 (ip), vehicle: carboxymethylcellulose (CMC)): 79 % of control | T/C (dose: 56.0 mg/kg/injection, schedule: Q01DX011 (ip), vehicle: saline): 89 % of control | T/C (dose: 112.0 mg/kg/injection, schedule: Q01DX011 (ip), vehicle: carboxymethylcellulose (CMC)): 62 % of control | T/C (dose: 112.0 mg/kg/injection, schedule: Q01DX011 (ip), vehicle: saline): 64 % of control | T/C (dose: 224.0 mg/kg/injection, schedule: Q01DX011 (ip), vehicle: saline): 24 % of control

CC(=O)OCC(=O)[C@@]1(O)CC[C@H]2[C@@H]3CCC4=CC(=O)[C@H](C)C[C@]4(C)[C@@]3(F)[C@@H](O)C[C@@]21C
T/C (dose: 3.75 mg/kg/injection, schedule: Q01DX011 (sc), vehicle: steriod suspending solution): 65 % of control | T/C (dose: 7.5 mg/kg/injection, schedule: Q01DX011 (sc), vehicle: steriod suspending solution): 29 % of control | T/C (dose: 15.0 mg/kg/injection, schedule: Q01DX011 (sc), vehicle: steriod suspending solution): 20 % of control | T/C (dose: 30.0 mg/kg/injection, schedule: Q01DX011 (sc), vehicle: steriod suspending solution): 9 % of control

CCOc1nc(N)nc2nc[nH]c12
T/C (dose: 8.0 mg/kg/injection, schedule: Q01DX011 (ip), vehicle: methylcellulose (MC)): 88 % of control | T/C (dose: 16.0 mg/kg/injection, schedule: Q01DX011 (ip), vehicle: methylcellulose (MC)): 55 % of control | T/C [6]: 59 % of control

CSc1nc(N)nc2c1ncn2CCCl
T/C (dose: 10.0 mg/kg/injection, schedule: Q01DX011 (ip), vehicle: saline): 65 % of control | T/C (dose: 20.0 mg/kg/injection, schedule: Q01DX011 (ip), vehicle: saline): 70 % of control | T/C (dose: 40.0 mg/kg/injection, schedule: Q01DX011 (ip), vehicle: saline): 73 % of control | T/C (dose: 80.0 mg/kg/injection, schedule: Q01DX011 (ip), vehicle: saline): 74 % of control
